Experimental data as given in ChEMBL document CHEMBL1201862, “PubChem BioAssay data set” (2004).
Active and inactive are the calls of the source.

Key:
[1] = target: T1, Rac GTPase-activating protein 1 (Homo sapiens, UniProt Q9H0H5); assay: blockers of MgcRacGAP-driven Rac1 GTP hydrolysis – biochemical, ADP Hunter fluorescence, primary and confirmatory, confirmation (AID 624330); assay type: functional
T1 sequence (Q9H0H5 whole entry): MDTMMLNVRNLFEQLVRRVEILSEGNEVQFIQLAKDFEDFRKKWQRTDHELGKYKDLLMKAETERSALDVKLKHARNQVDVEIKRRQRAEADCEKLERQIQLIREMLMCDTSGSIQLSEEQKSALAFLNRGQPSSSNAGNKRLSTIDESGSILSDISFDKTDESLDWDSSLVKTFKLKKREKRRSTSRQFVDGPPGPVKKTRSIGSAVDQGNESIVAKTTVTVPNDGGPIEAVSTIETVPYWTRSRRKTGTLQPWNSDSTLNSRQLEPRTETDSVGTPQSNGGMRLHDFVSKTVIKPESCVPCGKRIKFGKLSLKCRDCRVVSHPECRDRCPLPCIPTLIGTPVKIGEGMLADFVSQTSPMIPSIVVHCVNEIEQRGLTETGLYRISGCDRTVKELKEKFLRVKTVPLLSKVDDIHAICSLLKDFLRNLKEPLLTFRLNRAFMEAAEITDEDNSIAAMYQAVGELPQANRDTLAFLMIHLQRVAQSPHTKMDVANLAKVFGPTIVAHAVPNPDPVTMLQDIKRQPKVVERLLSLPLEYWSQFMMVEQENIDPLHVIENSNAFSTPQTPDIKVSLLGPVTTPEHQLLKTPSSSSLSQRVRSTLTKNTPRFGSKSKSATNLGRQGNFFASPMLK

[2] = target: T2, Heat shock factor protein 1 (Mus musculus, UniProt P38532); assay: decrease of HSF1-responsive luciferase luminescence – cell-based, NIH3T3, dose retest, confirmation (AID 2382); assay type: functional;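 note: NIH3T3 fibroblasts with HSF1-driven luciferase reporter stressed by proteasome inhibitor MG132; luminescence from HSF1-driven luciferase expression after 8 hours of MG132 stress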
T2 sequence (P38532 whole entry): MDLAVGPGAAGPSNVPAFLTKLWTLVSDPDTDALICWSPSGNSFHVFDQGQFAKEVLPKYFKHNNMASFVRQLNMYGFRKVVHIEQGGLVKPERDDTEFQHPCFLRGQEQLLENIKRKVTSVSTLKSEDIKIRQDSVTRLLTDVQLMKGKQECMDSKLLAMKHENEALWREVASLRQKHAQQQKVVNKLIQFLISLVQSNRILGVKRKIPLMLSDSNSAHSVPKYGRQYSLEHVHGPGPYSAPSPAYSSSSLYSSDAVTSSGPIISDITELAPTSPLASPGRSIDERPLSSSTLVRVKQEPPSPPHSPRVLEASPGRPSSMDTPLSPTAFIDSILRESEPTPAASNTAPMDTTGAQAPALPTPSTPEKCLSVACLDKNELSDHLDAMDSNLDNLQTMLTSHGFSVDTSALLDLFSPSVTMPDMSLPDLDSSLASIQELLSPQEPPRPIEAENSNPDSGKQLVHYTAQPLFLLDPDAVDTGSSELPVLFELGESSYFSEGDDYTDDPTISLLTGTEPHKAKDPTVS

[3] = viability of uninfected HEp-2 cells – cell-based, HTS, cytotoxicity control for RSV inhibitor project, dose response (AID 2410); assay type: functional; conditions: human respiratory syncytial virus
[4] = viability of PTEN-deleted HCT116 cells – cell-based, HCT116 PTEN knockout, dose response (AID 1047); assay type: functional;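 note: HCT116 colon tumor cells with PTEN knocked out; cells exposed to compound for 60 hours before readout; potency for loss of cell viability measured by luminescence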
[5] = viability of HCT116 lacking mutant beta-catenin – cell-based, human colon tumor, dose response (AID 1045); assay type: functional;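 note: HCT116 colon tumor cells with beta catenin knocked out; cells exposed to compound for 60 hours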
[6] = NIH3T3 cell viability loss – ATP luminescence, mouse fibroblasts, counter-screen, dose response (AID 2010); assay type: functional, cell-based;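 note: cells exposed to compound for about 90 hours before reading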
[7] = Trypanosoma cruzi growth suppression in host cells – NIH3T3 host cells, beta-gal luminescence, confirmation (AID 2044); assay type: functional, cell-based;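 note: intracellular parasites grown in NIH/3T3 mouse fibroblasts as host cells; luminescent beta-galactosidase reporter signal from transgenic T. cruzi replicating inside host cells; inhibitors lower the luminescence signal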
[8] = Luminescence Cell-Based Dose Response HTS to Identify Inhibitors of 5'UTR Stem-Loop Driven Prion Protein mRNA Translation in H4 Neuroglioblastoma Cells. [Related pubchem assays: 1827 (Project Summary), 1813 (Primary HTS)]; assay type: functional
[9] = luciferase reporter signal suppression in cells – H4 neuroglioma cells, luminescence, dose response (AID 1990); assay type: functional, cell-based
[10] = alpha-synuclein stem-loop luciferase translation blockers – H4 neuroglioma cells, luminescence, confirmation (AID 1988); assay type: functional, cell-based
[11] = NIH-3T3 fibroblast cytotoxicity, dose response, cytotoxicity control, cell-based, fluorescence, Alamar Blue, secondary assay (AID 2327); assay type: functional;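 note: NIH-3T3 mouse fibroblasts cultured with fluconazole at 8 µg/mL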
Cytochrome P450 2C9 = Cytochrome P450 2C9 (Homo sapiens, UniProt P11712)
Chain of Cytochrome P450 2C9 (P11712 whole entry): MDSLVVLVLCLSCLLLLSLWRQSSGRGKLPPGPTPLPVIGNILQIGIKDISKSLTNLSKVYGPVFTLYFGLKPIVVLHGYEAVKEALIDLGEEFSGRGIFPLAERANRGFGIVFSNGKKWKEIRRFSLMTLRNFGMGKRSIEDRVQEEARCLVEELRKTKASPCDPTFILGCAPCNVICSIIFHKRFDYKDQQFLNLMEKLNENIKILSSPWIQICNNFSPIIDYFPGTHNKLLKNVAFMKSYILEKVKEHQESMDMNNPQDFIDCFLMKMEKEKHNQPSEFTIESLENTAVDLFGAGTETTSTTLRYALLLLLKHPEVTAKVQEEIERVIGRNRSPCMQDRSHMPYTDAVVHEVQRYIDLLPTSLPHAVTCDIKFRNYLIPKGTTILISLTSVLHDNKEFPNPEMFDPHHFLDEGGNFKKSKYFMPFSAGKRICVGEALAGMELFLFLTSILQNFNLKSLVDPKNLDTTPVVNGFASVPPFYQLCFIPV

INS1 = assay: INS-1E survival protection against cytokine death – cell-based, luminescence, retest, dose response (AID 449756); assay type: functional; conditions: Rattus norvegicus;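 note: cell death triggered by IL-1 beta plus TNF-alpha plus IFN-gamma mixture; protective hits raise ATP signal compared with cytokine alone wells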
[12] = Luminescence Cell-Based Dose Retest to Confirm Inhibitors of Cancer Stem Cells. [Related pubchem assays (depositor defined):AID2717, AID2721]; assay type: functional; conditions: Homo sapiens

Oc1ccc(NCc2ccccc2OCc2ccccc2F)cc1
IC50 [1]: 71.4 µM (active)

COc1ccccc1NS(=O)(=O)c1ccc(C)c(C(N)=O)c1
EC50 [2]: > 195 µM (not active)

C=CCn1c(SCC(C)=O)nc2scc(-c3ccc(C)o3)c2c1=O
CC50 [3]: 13.5 µM (active)

Cc1ccc(C)c(OCC(O)CN2CCC(CN3C(=O)c4cccc5cccc(c45)C3=O)CC2)c1 (centres undefined)
EC50 [4]: 4.42 µM (active)
EC50 [5]: 4.8 µM (active)

CC1=CC(C)(C)Nc2ccccc21
EC50 [6]: > 60 µM (not active)
EC50 [7]: 4.5 µM (active)
EC50 [8]: > 120 µM (not active)
EC50 [9]: > 120 µM (not active)
EC50 [10]: > 120 µM (not active)

Cc1ccc(N2NC3(CCN(C(N)=O)CC3)NC2=O)cc1
EC50 [11]: 28.6 µM (active)

CCOC(=O)Cn1nc(C)c(NC(=O)COc2ccc([N+](=O)[O-])cc2)c1C
EC50 [2]: > 195 µM (not active)

CCOc1cc(C(=O)NCC(C)(C)CNC(=O)c2cc(OCC)c(OCC)c(OCC)c2)cc(OCC)c1OCC
CC50 [3]: 27.7 µM (active)

COc1cc(NC(=O)CN(C)S(=O)(=O)c2ccc3c(c2)CC(C)N3C(C)=O)cc(OC)c1 (centres undefined)
EC50 [2]: > 195 µM (not active)

CCCCc1nc2ccccc2c(NC(=O)CN2CCN(C)CC2)c1CCC
IC50 [1]: 50.3 µM (active)

N#CC1=C(N)Oc2cc(O)ccc2C1C1CCCCC1 (centres undefined)
EC50 [4]: 12.1 µM (active)
EC50 [5]: 13.2 µM (active)

O=C(O)c1cccc(NC(=O)c2ccccc2NC(=O)c2ccccc2F)c1
EC50 [2]: > 195 µM (not active)

Cc1ccccc1N1C(=O)C(Oc2ccc(Cl)cc2)C1CNCCCOC(C)C (centres undefined)
EC50 [8]: 119 µM (active)
EC50 [9]: 27 µM (active)
EC50 [10]: > 120 µM (not active)

Oc1ccc(Cl)cc1-c1cc(C(F)(F)C(F)F)nc(-c2ccccc2)n1
EC50 [8]: > 120 µM (not active)
EC50 [9]: > 120 µM (not active)
EC50 [10]: > 120 µM (not active)

CCc1ccc2c(c1)c1nnc(NN)nc1n2CC
EC50 [4]: 30.8 µM (active)
EC50 [5]: 31.1 µM (active)

COc1cc(CCCN2CCNC[C@@H]2Cc2ccc(O)cc2)cc(OC)c1OC
EC50 [2]: > 195 µM (not active)

CCc1ccc(-c2cc(C(=O)NCCCn3ccnc3)c3ccccc3n2)s1
CC50 [3]: 28.4 µM (active)

COc1cc(CNc2ncc(-c3ccc(Br)cc3)n2C)cc(OC)c1O
IC50 [1]: 52 µM (active)

OC(COc1ccc2cc(Br)ccc2c1)CN1CCCC1 (centres undefined)
EC50 [6]: 11.5 µM (active)
EC50 [7]: 3.4 µM (active)
EC50 [4]: 17 µM (active)
EC50 [5]: 15.6 µM (active)

COc1ccc(Cl)cc1N(CC(=O)N1CCN(Cc2ccccc2)CC1)S(C)(=O)=O
EC50 [2]: > 195 µM (not active)

COc1ccc2nc(COC(=O)c3cccs3)c(C(C)=O)[n+]([O-])c2c1
EC50 [2]: > 195 µM (not active)

Cc1cc(N)n(-c2ccc3ccccc3c2)n1
AC50 (Cytochrome P450 2C9): 35.5 µM (inconclusive)

Oc1c([C@H](Nc2ccccn2)c2ccccc2)ccc2cccnc12
AC50 (Cytochrome P450 2C9): 6.31 µM (inconclusive)

Cc1nc(C(=O)O)nn1-c1ccc([N+](=O)[O-])cc1
EC50 [8]: 118 µM (active)
EC50 [9]: > 120 µM (not active)
EC50 [10]: > 120 µM (not active)

COc1ccc(Br)cc1CN1CCN(C(=O)c2ccc(F)cc2)CC1
IC50 [1]: 212 µM (active)

COc1cc(NC(=O)CN(C)S(=O)(=O)c2ccc(-c3ccc(O)nn3)s2)cc(OC)c1
EC50 [2]: > 195 µM (not active)

CC(=O)NC(=S)Nc1ccc(-c2nc3ccc(C)cc3s2)cc1
EC50 [4]: 50 µM (active)
EC50 [5]: 112 µM (active)

CN(C)S(=O)(=O)c1ccc(-c2csnn2)s1
EC50 [2]: > 195 µM (not active)

COc1ccc(C2/C=C\CN(C(=O)Nc3ccc(C(F)(F)F)cc3)CC(=O)N2Cc2ccc(F)cc2)cc1 (centres undefined)
EC50 [8]: > 120 µM (not active)
EC50 [9]: 10.2 µM (active)
EC50 [10]: 10.8 µM (active)
AC50 (INS1): 6.64 µM (active)

CCOC(=S)SCC(=O)Nc1nc(-c2ccc(Br)cc2)cs1
AC50 [12]: 0.722 µM (active)
EC50 [8]: 8.99 µM (active)
EC50 [9]: 8.41 µM (active)
EC50 [10]: 5.28 µM (active)

NC(=O)COc1ccc(-n2cnnn2)cc1
EC50 [2]: > 195 µM (not active)

COc1ccc2cc(Br)ccc2c1CC(=O)NC1CC(C)(C)NC(C)(C)C1
EC50 [4]: 20.4 µM (active)
EC50 [5]: 20.8 µM (active)

CCOc1ccc(C(=O)C[n+]2ccccc2C)cc1
EC50 [9]: > 120 µM (not active)
EC50 [10]: > 120 µM (not active)

CC(=O)c1nn(-c2cccc(Br)c2)cc1C(=O)c1ccc(C)cc1
EC50 [11]: > 150 µM (inactive)

C=CCn1c(S)nnc1-c1cc2cccc(OC)c2o1
CC50 [3]: 21.4 µM (active)

Cc1c2c(nc3ccccc13)CCC(C)C2 (centres undefined)
CC50 [3]: > 50 µM (active)

O=c1c2ccccc2nc(CSc2nnnn2-c2ccccc2)n1-c1ccccc1
EC50 [4]: 18.1 µM (active)
EC50 [5]: 17.6 µM (active)

COc1ccc(O)c(C2=Nc3ccccc3N=C(c3cccs3)C2)c1
EC50 [2]: > 195 µM (not active)

COc1cc(C=O)ccc1OCCCOc1ccccc1C(=O)O
AC50 (Cytochrome P450 2C9): 17.8 µM (inconclusive)

Cc1cccc(NC(=O)Nc2cccc(C#N)c2)n1
CC50 [3]: > 50 µM (active)

CCOC(=O)c1c(NC(=O)C2=C(C)N=C(S)NC2c2ccc(F)cc2)sc(C)c1C (centres undefined)
EC50 [8]: > 120 µM (not active)
EC50 [9]: > 120 µM (not active)
EC50 [10]: > 120 µM (not active)

Oc1ccc(C=NNc2nc3ccccc3s2)c(O)c1
IC50 [1]: 88.4 µM (active)

O=C(N/N=C/c1ccc(O)cc1)c1ccc(COc2cc(Cl)ccc2Cl)o1
AC50 (Cytochrome P450 2C9): 6.31 µM (inconclusive)

CCc1ccc(/C(C)=N\Nc2ccc([N+](=O)[O-])cc2)cc1
EC50 [11]: > 160 µM (inactive)

COc1ccc(CN2CCN(Cc3c[nH]c4ccccc34)CC2)c(OC)c1
IC50 [1]: 104 µM (active)

COc1cc(/C=N/NC(=O)c2ccc3c(c2)OCO3)ccc1O
IC50 [1]: 28.5 µM (active)

CN(C)c1ccc(/C=N/N2CCN(Cc3ccccc3Cl)CC2)cc1
IC50 [1]: 69.6 µM (active)

CC(=O)O/N=C/c1c(NCc2ccccc2)nc2c(C)cccn2c1=O
CC50 [3]: 31.1 µM (active)

C/C(=N\Nc1ccc([N+](=O)[O-])cc1)c1ccc(N)cc1
IC50 [1]: 109 µM (active)

FC(F)(F)c1cccc(N2CCC(/N=C/N3CCCCCC3)=N2)c1
IC50 [1]: 56.4 µM (active)

Nc1ccc(S(=O)(=O)Nc2cnc3ccccc3n2)cc1 [SULFAQUINOXALINE]
AC50 (Cytochrome P450 2C9): 3.98 µM (inconclusive)
